The text below walks through data of US11412737B2, “Mixtures of beflubutamid or optically enriched forms thereof with a second herbicide” (FMC Corporation, priority 2016, dated 2022).

Holding throughout (test): pre-emergence test, weed control
One assay deals with Yellow foxtail (SETLU). The format is in vivo. The following applies: pre-emergent, 28 DAT, (+)-BFL >95% e.e., rate g ai/ha by row: r6 62.5, r7 125, r8 62.5, r9 125, r10 222, r11 445, r12 22.5, r13 45, r14 62.5+62.5, r15 125+62.5, r16 62.5+125, r17 125+125, r18 62.5+222, r19 125+222, r20 62.5+445, r21 125+445, r22 62.5+22.5, r23 125+22.5, r24 62.5+45, r25 125+45. How it is done:
(§1) Test compositions containing the test compounds were diluted with water to provide the appropriate test rate concentrations.
(§2) For pre-emergence testing, four disposable fiber flats (6 inch by 10 inch) for each rate of application of each herbicide solution were filled with top soil, to which seeds of each species were planted in furrows made by a template pressed on the top of the soil. The furrows were covered with soil after planting the seed and were watered well before application of the test compounds.
(§3) Fiber flats designated for treatment were placed in a spray chamber having a static platform and a movable sprayer and the height of the spray nozzle was 10.5 inches above the soil level. Once the sprayer was calibrated using water for spray volume of 30 gallons per acre, flats were sprayed with sprayer at a speed to receive a coverage equivalent of 30 gallons per acre. The application rates are those shown in the Tables below for the individual herbicidal solutions and the herbicide compositions of this invention. The pre-emergence flats were immediately placed in the greenhouse and watered lightly after treatment. Thereafter they were regularly watered and fertilized for the duration of the test.
(§4) The control of weeds was evaluated in each experimental test at 21 for wheat and 28 days after treatment (DAT) for all species. Data were analyzed using Minitab software at 95% confidence interval. The results, shown as an average of the replications, were compared with results observed in untreated control flats in the same tests. Percent control was determined by a method similar to the 0 to 100 rating system disclosed in “Research Methods in Weed Science,” 2nd ed., B. Truelove, Ed.; Southern Weed Science Society; Auburn University, Auburn, Ala., 1977. The rating system is as follows in Table 1.

In a further assay the test system is Blackgrass (ALOMY). Type of assay: in vivo. The following applies: pre-emergent, 28 DAT, (+)-BFL >95% e.e., rate g ai/ha by row: r6 62.5, r7 125, r8 62.5, r9 125, r10 222, r11 445, r12 22.5, r13 45, r14 62.5+62.5, r15 125+62.5, r16 62.5+125, r17 125+125, r18 62.5+222, r19 125+222, r20 62.5+445, r21 125+445, r22 62.5+22.5, r23 125+22.5, r24 62.5+45, r25 125+45. How it is done: as §1, §2, §3, §4

The subject of the next assay is Wild oat (AVEFA). Type of assay: in vivo, Avena fatua. The following applies: pre-emergent, 28 DAT, (+)-BFL >95% e.e., rate g ai/ha by row: r6 62.5, r7 125, r8 62.5, r9 125, r10 222, r11 445, r12 22.5, r13 45, r14 62.5+62.5, r15 125+62.5, r16 62.5+125, r17 125+125, r18 62.5+222, r19 125+222, r20 62.5+445, r21 125+445, r22 62.5+22.5, r23 125+22.5, r24 62.5+45, r25 125+45. The protocol: as §1, §2, §3, §4

In a further assay the test system is Green foxtail (SETVI). Type of assay: in vivo, Setaria viridis. Conditions: pre-emergent, 28 DAT, (+)-BFL >95% e.e., rate g ai/ha by row: r6 62.5, r7 125, r8 62.5, r9 125, r10 222, r11 445, r12 22.5, r13 45, r14 62.5+62.5, r15 125+62.5, r16 62.5+125, r17 125+125, r18 62.5+222, r19 125+222, r20 62.5+445, r21 125+445, r22 62.5+22.5, r23 125+22.5, r24 62.5+45, r25 125+45. How it is done:
as §1, §2, §3, §4

For assay [1], the system named is Common lambsquarters (CHEAL). Type of assay: in vivo, Chenopodium album. The following applies: pre-emergent. How it is done: as §1, §2, §3, §4
The test system of a further assay is Italian ryegrass (LOLMU). The format is in vivo, Lolium perenne. multiflorum. The following applies: pre-emergent, 28 DAT, (+)-BFL >95% e.e.; rate g ai/ha by row: r6 62.5, r7 125, r8 62.5, r9 125, r10 222, r11 445, r12 22.5, r13 45, r14 62.5+62.5, r15 125+62.5, r16 62.5+125, r17 125+125, r18 62.5+222, r19 125+222, r20 62.5+445, r21 125+445, r22 62.5+22.5, r23 125+22.5, r24 62.5+45, r25 125+45. The protocol: as §1, §2
Fiber flats designated for treatment were placed in a spray chamber having a static platform and a movable sprayer and the height of the spray nozzle was 10.5 inches above the soil level. Once the sprayer was calibrated using water for spray volume of 30 gallons per acre, flats were sprayed with sprayer at a speed to receive a coverage equivalent of 30 gallons per acre. […]
The control of weeds was evaluated in each experimental test at 21 for wheat and 28 days after treatment (DAT) for all species. Data were analyzed using Minitab software at 95% confidence interval. […] Percent control was determined by a method similar to the 0 to 100 rating system disclosed in “Research Methods in Weed Science,” 2nd ed., B. Truelove, Ed.; Southern Weed Science Society; Auburn University, Auburn, Ala., 1977. […]

Turning to `CC[C@@H](Oc1ccc(F)c(C(F)(F)F)c1)C(=O)NCc1ccccc1` [(+)-BFL], the “percentage of weed control, SETLU” value is 0% in the assay with Yellow foxtail (SETLU) (62.5 g ai/ha) and 5% in the assay on Yellow foxtail (SETLU) (125 g ai/ha). For the same compound, the “percentage of weed control, ALOMY” value amounted to 2% with Blackgrass (ALOMY) (62.5 g ai/ha) and 5% in the assay with Blackgrass (ALOMY) (125 g ai/ha). In addition, the figures for the “percentage of weed control, AVEFA” value with Wild oat (AVEFA) (62.5 g ai/ha) and in the assay on Wild oat (AVEFA) (125 g ai/ha) were 0% and 1%, respectively. Besides, the figures for the “percentage of weed control, SETVI” value with Green foxtail (SETVI) (62.5 g ai/ha) and in the assay on Green foxtail (SETVI) (125 g ai/ha) were 7% and 8%, respectively. In addition, in assay [1] (applied alone, 28 DAT (Table 17)), the “weed control of common lambsquarters (CHEAL)” value is “low level weed control”. The “percentage of weed control, CHEAL” value in assay [1] (28 DAT, (+)-BFL >95% e.e., rate g ai/ha by row: r6 62.5, r7 125, r8 62.5, r9 125, r10 222, r11 445, r12 22.5, r13 45, r14 62.5+62.5, r15 125+62.5, r16 62.5+125, r17 125+125, r18 62.5+222, r19 125+222, r20 62.5+445, r21 125+445, r22 62.5+22.5, r23 125+22.5, r24 62.5+45, r25 125+45) stood at 37%. For the same compound, in the assay with Italian ryegrass (LOLMU), the “percentage of weed control, LOLMU” value was found to be 1%.
